Laboratory results: patent publication US5047533A, “Acyclic purine phosphonate nucleotide analogs” (SRI International, priority 1990, dated 1991)
≈ marks a conversion by molar mass, not a printed value. Where two headings read alike, the source gives them in different places.

Assays:
[1] = system: human cytomegalovirus (strain AD169); assay: Plaque reduction, human cytomegalovirus; assay type: cell-based
Procedure: (§1) One herpes virus strain employed was Strain McCrae of type 1 herpes (thymidine kinase positive virus) (HSV-1TK^+). This strain was prepared and titered in MA-104 cells and frozen at -90° C. until use. Also used were strain HF (HSV-1TK^-). Strain E194 (HSV-2), NJB strain (MCMV), strain AD169 (HCMV).
^a 50% effective dose, determined from plot of data.
(§2) The data on acyclovir were gathered from tests run in MRC-5 cells grown under agarose overlay, with plaques read 7 days after virus exposure.

HSV-1TK+ = assay: In vivo guinea pig HSV-1TK+ lesion test, topical solution; conditions: guinea pigs; 5% solution of acyclovir; five days after treatment
Procedure: Compound 2 also was tested in vivo in guinea pigs as an agent against HSV-1TK^+. The animals were inoculated with the virus; 18 hours later Compound 2 at two concentrations (0.4% and 1-2% (saturated) solution in water) was administered, and five days later blister diameters at the point of inoculation were measured. A 5% solution of acyclovir or a 1.4% solution of poly(vinylalcohol) was used as control. Satellite lesions were measured, as well.

[2] = Cytotoxicity (maximum tolerated dose), control tests in 96-well microplates; assay type: cell-based; conditions: Table 5; microscopic examination, separately run control tests; read-out: Approx. MTD (dose causing approximately 50% cytotoxic effects in cells)
Source text: (§3) ^b Maximum tolerated dose: That dose causing approximately 50%
(§4) cytotoxic effects in cells, determined by the microscopic examination of
(§5) cells for sloughing, shape alteration, and granularity in separately run
(§6) control tests in 96well microplates.
as §2

[3] = system: HSV-1TK+ (Strain McCrae of type 1 herpes); assay: Inhibition of viral CPE, HSV-1TK+ in MA-104 cells; assay type: cell-based; conditions: for inhibition at 1 µg/mL: 1.0 μg/ml; for inhibition at 3.2 µg/mL: 3.2 μg/ml; for inhibition at 10 µg/mL: 10 μg/ml; for inhibition at 100 µg/mL: 100 μg/ml; for inhibition at 320 µg/mL: 320 μg/ml; for inhibition at 1000 µg/mL: 1000 μg/ml
Procedure: as §1
(§7) Continuous passaged monkey kidney (MA-104) cells were used for testing of herpes-type virus, with growth medium consisting of Minimum Essential Medium (MEM) supplemented with 0.1% NaHCO3 and […] gentamicin.
(§8) To a 96 well microtiter plate containing an established 24 hour monolayer of cells from which the medium has been decanted was added 0.1 ml of varying (one-half log10) concentrations of test compound, which incubated on the cell 15 minutes, after which 0.1 ml of virus in a concentration of 320 cell culture 50% infectious doses (CCID50)/0.1 ml was added. The plate was covered with plastic wrap and incubated at 37° C. Included with the test were toxicity controls (each concentration of compound+test medium in place of virus), virus controls (virus+test medium in place of compound) and cell controls (test medium in place of compound and virus). The cells were examined microscopically after 72 hours for evidence of cytotoxicity and for viral cytopathic effect (CPE). Vidarabine was run on the same plate in parallel. The test compounds were added to the medium at a concentration of 2000 μg/ml for use as a positive control.
Antiviral activity was determined by observation of inhibition of viral CPE. This activity was expressed by ED50, defined as that dose range of compound causing 50% CPE inhibition.
A Virus Rating (VR) was also determined. VR is a numerical expression of antiviral activity, weighted to take into account any cytotoxicity observed, as discussed by Sidewell et al, Appl Microbiol (1971) 22:797. Generally, a VR of 0.1-0.4 indicates slight antiviral effect, 0.5-0.9 indicates moderate antiviral effect, and ≥1.0 indicates strong antiviral effect.

murine CMV (NJB strain) = assay: Inhibition of viral CPE, murine CMV; assay type: cell-based
Procedure: as §1, §7
as §8, with “Vidarabine was run on the same plate in parallel. The test compounds were added to the medium at a concentration of 2000 μg/ml for use as a positive control.” left out
(§9) Antiviral activity was determined by observation of inhibition of viral CPE. […]
A Virus Rating (VR) was also determined. […]

[4] = system: reverse transcriptase (RT) from Moloney murine leukemia virus (MMLV) or avian myeloblastosis virus (AMV); assay: Reverse transcriptase assay; assay type: biochemical; conditions: 8 mM concentration
Procedure: For the reverse transcriptase assay, cloned reverse transcriptase (RT) (Bethesda Research Laboratories) from Moloney murine leukemia virus (MMLV) or avian myeloblastosis virus (AMV) (Seikagaku or Boehringer Mannheim) was used to direct DNA synthesis from a polyribonucleotide template and a oligodeoxynucleotide primer under reaction conditions (Houts, G. E., et al, J Virol (1979) 29:517.)
Reaction mixtures (100 μl) for the assay of MMLV RT consisted of 50 mM Tris-hydrochloride, pH 8.0, 6 mM MgCl2, 40 mM KCl, 100 μg bovine serum albumin per ml, 1 mM dithiothreitol, 0.1 mM polyadenylic acid (Pharmacia, Inc.), 0.1 mM oligo(dT)12-18 (Pharmacia, Inc.), 0.4 mM deoxythymidine triphosphate (dTTP), and 0.1 mM tritiated (93.5 Cl/mmol) dTTP (New England Nuclear). The compounds assayed were added in various concentrations and dilutions at a volume of 10 μl. Results were confirmed by duplicate assays. Dilutions were made using 10% aqueous DMSO. The total activity was measured by spotting on dry Whatman 3 mm filter disks and radioactivity was determined by liquid scintillation techniques. The assay time course was begun by adding 10 units of RT from MMLV or AMV and incubating the reaction at 37° C. […] Disks were dried under a heat lamp and the acid-insoluble product radioactivity was determined by liquid scintillation counting. […]

HIV = assay: Antiviral activity versus HIV in lymphoblastoid cells; assay type: cell-based; conditions: Human immunodeficiency virus 1, Lymphoblastoid cell; read-out: ED50 against HIV
Procedure: The compounds of the invention were evaluated in vitro as antiviral agents against herpes virus and against RNA retrovirus. Various herpes strains were used. An infected B lymphoblastoid cell line was used as HIV substrate to test antiviral activity with respect to RNA retrovirus.
To test antiviral activity versus HIV, the following procedure was used: Infectious HIV was assayed in cell culture as described originally by Barre-Sinoussi et al for isolation of LAV, except that persistently infected lymphoblastoid cells were used instead of mononuclear cells from anti-LAV negative donors. HIV obtained from cell culture was stored in liquid nitrogen in aliquots of RPMI 1640 culture medium with 20% of total calf serum and 20% glycerol and containing 1,000 TCID-50 HIV. The lymphoblastoid cells (10^6) were incubated with 1,000 TCID-50 of HIV obtained from cell cultures, and cells were then cultured in RPMI-1640 medium. Culture medium was changed every 3 days for 3 weeks and the medium for each 3-day period from Day 6 through Day 21 was assayed for viral reverse transcriptase activity by concentrating (pelleting) virus by ultracentrifugation in the 100 place Spinco 25 rotor and assaying pellets for reverse transcriptase (RT) using a ^32 P-dTTP in the presence of dimer-template poly rA-oligo dT. […]

HSV-2 (Strain E194) = assay: Inhibition of viral CPE, HSV-2; assay type: cell-based
Procedure: as §1, §7
as §8, with “The test compounds were added to the medium at a concentration of 2000 μg/ml for use as a positive control.” left out
as §9

cells = assay: Cytotoxicity (maximum tolerated dose), control tests in 96-well microplates; assay type: cell-based; conditions: overall, Table 5
Source text: as §3, §4, §5, §6, §2

[5] = MA104, read-out: CPE Inhib., Table 2
[6] = MA104, read-out: CPE Inhib., Table 3 Test 1
[7] = MA104, read-out: CPE Inhib., Table 3 Test 2

In the case of `Nc1nc2c(ncn2COCCO)c(=O)[nH]1` [Acyclovir, 9-(2-hydroxyethoxymethyl) guanine, reference compound], the “No. Plaques” value ([1]; Experiment No. 1, 32 μg/ml) is reported as 7, the “No. Plaques” value ([1]; Experiment No. 1, 100 μg/ml) is reported as 1 and the “No. Plaques” value ([1]; Experiment No. 2, 10 μg/ml) is reported as 20. For the same molecule, the “No. Plaques” value ([1]; Experiment No. 2, 32 μg/ml) was 8, the “No. Plaques” value ([1]; Experiment No. 2, 100 μg/ml) was 1 and the “Approx. ED50” value ([1]; Experiment No. 2, determined from plot of data) was 10 to 32 µg/mL. For the same molecule, the inhibition at 32 µg/mL ([1]; Human betaherpesvirus 5, AD169, Experiment No. 1, 32 μg/ml, read-out: % Reduct.) was 59%, the inhibition at 100 µg/mL ([1]; Human betaherpesvirus 5, AD169, Experiment No. 1, 100 μg/ml, read-out: % Reduct.) was 94% and the inhibition at 10 µg/mL ([1]; Human betaherpesvirus 5, AD169, Experiment No. 2, 10 μg/ml, read-out: % Reduct.) was 9%. For the same molecule, the inhibition at 32 µg/mL ([1]; Human betaherpesvirus 5, AD169, Experiment No. 2, 32 μg/ml, read-out: % Reduct.) was 64%, the inhibition at 100 µg/mL ([1]; Human betaherpesvirus 5, AD169, Experiment No. 2, 100 μg/ml, read-out: % Reduct.) was 96% and the EC50 ([1]; Human betaherpesvirus 5, AD169, Experiment No. 1, determined from plot of data, read-out: Approx. ED50) was 10 to 32 µg/mL (≈ 44.4 to 142 µM). The “TK+ (average number of lesions)” value (HSV-1TK+) was 1.0 and the CC50 [2] was about 1000 µg/mL (≈ 4440 µM).
For `Nc1nc2c(ncn2COCCCP(=O)(O)O)c(=O)[nH]1` [Compound 1, 9-(3'-phosphono-1'-propoxymethyl)guanine], the “activity against HSV-1TK+ relative to vidarabine” value [3] was “comparable to that of vidarabine”, the “VR (Virus Rating)” value ([3]; additional tests against HSV-1TK+) was 0.6 and the “activity against murine CMV” value (murine CMV (NJB strain)) was “not active”. The “inhibition of reverse transcriptase” value [4] was 75% and the EC50 (HIV) was 40 to 50 µg/mL (≈ 132 to 165 µM).
With `CCOP(=O)(O)CCC(CO)OCn1cnc2c(=O)[nH]c(N)nc21` (stereo not drawn) [Compound 5, 9(3'-ethylphosphono-1'-hydroxymethyl-1'-propyloxymethyl)guanine] the “effectiveness against HSV1TK+” value [3] was “mildly effective”, the “No. Plaques” value ([1]; Experiment No. 1, 32 μg/ml) was 2 and the “No. Plaques” value ([1]; Experiment No. 1, 100 μg/ml) was 1. The “No. Plaques” value ([1]; Experiment No. 2, 10 μg/ml) was 7, the “No. Plaques” value ([1]; Experiment No. 2, 32 μg/ml) was 3 and the “No. Plaques” value ([1]; Experiment No. 2, 100 μg/ml) was 0. The inhibition at 32 µg/mL ([1]; Human betaherpesvirus 5, AD169, read-out: % Reduct., Experiment No. 1, 32 μg/ml) was 88%, the inhibition at 100 µg/mL ([1]; Human betaherpesvirus 5, AD169, read-out: % Reduct., Experiment No. 1, 100 μg/ml) was 94% and the inhibition at 10 µg/mL ([1]; Human betaherpesvirus 5, AD169, read-out: % Reduct., Experiment No. 2, 10 μg/ml) was 68%. It also gave an inhibition at 32 µg/mL ([1]; Human betaherpesvirus 5, AD169, read-out: % Reduct., Experiment No. 2, 32 μg/ml) of 86%, an inhibition at 100 µg/mL ([1]; Human betaherpesvirus 5, AD169, read-out: % Reduct., Experiment No. 2, 100 μg/ml) of 100% and an EC50 ([1]; Human betaherpesvirus 5, AD169, read-out: Approx. ED50, Experiment No. 1, determined from plot of data) of about 0.1 µg/mL (≈ 0.277 µM). The EC50 ([1]; Human betaherpesvirus 5, AD169, read-out: Approx. ED50, Experiment No. 2, determined from plot of data) was about 3.2 µg/mL (≈ 8.86 µM), the EC50 ([1]; Human betaherpesvirus 5, AD169, read-out: ED50, human CMV) was 0.1 to 3.2 µg/mL (≈ 0.277 to 8.86 µM) and the “human CMV-inhibitory effect relative to acyclovir” value ([1]; overall, Table 5) was “more potent”. The “effectiveness against HSV-2” value (HSV-2 (Strain E194)) was “mildly effective”, the CC50 [2] was about 1000 µg/mL (≈ 2770 µM) and the “cytotoxicity relative to acyclovir” value (cells) was “no more cytotoxic”.
Work on `Nc1ncnc2c1ncn2[C@@H]1O[C@H](CO)[C@@H](O)[C@@H]1O` [Vidarabine] yielded an EC50 ([3]; MA104, 72 h, read-out: ED50) of 10 µg/mL (≈ 37.4 µM), an inhibition at 1 µg/mL [3, 5] of 56% and an inhibition at 3.2 µg/mL [3, 5] of 28%. The inhibition at 10 µg/mL [3, 5] was 69%, the inhibition at 32 µg/mL ([3]; MA104, read-out: CPE Inhib., Table 2, 32 μg/ml) was 87% and the inhibition at 100 µg/mL [3, 5] was 87%. It also gave an inhibition at 320 µg/mL [3, 5] of 100%, an inhibition at 1000 µg/mL [3, 5] of 100% and an inhibition at 1 µg/mL [3, 6] of 0%. The inhibition at 10 µg/mL [3, 6] was 60%, the inhibition at 320 µg/mL [3, 6] was 100% and the inhibition at 1000 µg/mL [3, 6] was 100%. It also gave an inhibition at 1 µg/mL [3, 7] of 0%, an inhibition at 3.2 µg/mL [3, 7] of 0% and an inhibition at 100 µg/mL [3, 7] of 85%. For the same molecule, the inhibition at 320 µg/mL [3, 7] was 100%, the inhibition at 1000 µg/mL [3, 7] was 100% and the “VR (Virus Rating)” value ([3]; Table 2, HSV-1TK+) was 1.3. The “VR (Virus Rating)” value ([3]; Table 3 Test 1, HSV-1TK+) was 0.8 and the “VR (Virus Rating)” value ([3]; Table 3 Test 2, HSV-1TK+) was 0.7.
